According to patent EP0794786B1, “THE USE OF INOSITOLTRI[…] THE PREPARING OF MEDICAMENTS” (Bioneris AB,, priority 1994, dated 1996):

Tests used:
Format in all cases: in vivo
[1] = system: Lewis lung carcinoma cells (ATCC CRL-1642); experiment: Lewis lung carcinoma experiment in mice: lung weight and histological angiogenesis
Procedure: Lewis lung carcinoma cells (ATCC CRL-1642) were grown as a suspension culture in a medium with 4.5 g/l glucose with 10 % heat inactivated bovine serum in a 5 % CO2 humidified atmosphere at 37°C. The cells were subcultured by diluting cell suspensions 1:6. After harvesting by centrifugation and resuspension, the cells were counted in a counting chamber. The cells were resuspended with medium to a concentration of 10 million cells/ml.
Ten male specific pathogen free mice at an age of 6 weeks were maintained in autoclaved caves with filter tops in a barrier unit equipped with HEPA filters. Autoclaved bedding, irradiated feed and sterile filtered water was used. The temperature and humidity was kept constant (22 ± 2°C, 65 ± 5 % RH).
To each animal 0.1 ml of the cell suspension was inoculated subcutanousely in the right flank at day 0. After 15 days, osmotic minipumps (ALZET) were surgically placed subcutaneously into 5 animals while another 5 animals, sham operated, served as a control group.
Each minipump contained 226 µl of a solution of 0.4 g/ml of the sodium salt of 1-D-myo-inositol-1,2,6-trisphosphate (IP3). The minipumps gave a continous dosage of IP3 for 6 days.
The injection of lung carcinoma cells cause a formation of tumors and angiogenesis in lung tissue. The weight of the lungs after the experiment is considered as a measurement of the amount of tumor tissue which is formed.

glioma tumor tissue = experiment: Glioma tumor growth in mice after subcutaneous inoculation of rat glial cells, IP3 via osmotic minipumps
Procedure: Rat glial cells were grown in a stationary suspension culture in a medium supplemented with 15 % heat inactivated horse serum and 2.5 % heat inactivated fetal calf serum in a 5 % CO2 humidified atmosphere at 37°C.
The cells were harvested using trypsine solution and the concentration of cells were measured. The cells were centrifuged and resuspended to a concentration of 1 million cells/ml.
Twelve female specific pathogen free mice at an age of 12 weeks (weighing 20-25 g) were maintained in autoclaved cages with filter tops in horizontal air flow cabiners in a unit equipped with specific filters. Autoclaved bedding, irradiated feed and sterile water was used. The temperature and humidity was kept constant at 22 ± 2°C, 65 ± 5 % relative humidity.
To each animal 0.1 ml of the cellsuspension was inoculated subcutanousely in the right flank at day 0.
After five days, osmotic minipumps (ALZET) were surgically placed subcutanously into 7 animals, while 5 animals, shamoperated, served as a control group.
Each minipump contained approximately 200 µl of a solution of 1.0 g/2,5 ml of the sodium salt of 1-D-myo-inositol-1,2,6-trisphosphate (IP3). The minipumps gave a continous dosage of IP3 for 14 days.
The injection of glioma cells into the animals cause a growth of tumors. The growth of the tumors was examined by measuring two diameters along two perpendicular axes. The true tumor diameter was estimated as the diameter minus 0.5 mm (which is the thickness of the skin). Tumor area (A) was calculated by multiplying the two true diameters and tumor volume was calculated by the formula: /6 x A^3/2 x 0.67.

[2] = Toxicity after intraperitoneal injection to mice; conditions: 160 mg/kg body weight by intraperitoneal injection to mice
prostate tumor tissue = experiment: Prostate tumor growth in mice after subcutaneous injection of a specific cell type, IP3 via osmotic minipumps
Excerpt: In a procedure similar to the one described in example 2 prostate tumor growth was induced by subcutanous injection of a specific cell type to mice. One group of animals received IP3 via osmotic minipumps while another group of animals served as a control.

For `O=P(O)(O)O[C@@H]1[C@H](OP(=O)(O)O)[C@H](O)[C@@H](O)[C@H](O)[C@H]1OP(=O)(O)O` [IP3, D-myo-inositol-1,2,6-trisphosphate], the “angiogenesis (histological examination)” value ([1]; IP3 minipump s.c. after 15 days, for 6 days, compared with sham operated animals) was “lower angiogenesis”, the mean lung weight ([1]; sodium salt of IP3 0.4 g/ml, 226 µl minipump s.c. after 15 days, continuous for 6 days, sham operated animals 0.312 g) was 0.198 g and the Tumor volume (glioma tumor tissue; Day 0 (inoculation; minipumps placed after five days)) was 0 mm^3. The Tumor volume (glioma tumor tissue; Day 10, sodium salt of IP3 1.0 g/2,5 ml, approx. 200 µl minipump s.c. from day 5, continuous for 14 days) was 115 mm^3, the Tumor volume (glioma tumor tissue; Day 13, minipump s.c. from day 5, continuous for 14 days) was 270 mm^3 and the Tumor volume (glioma tumor tissue; Day 15, minipump s.c. from day 5, continuous for 14 days) was 620 mm^3. For the same compound, the Tumor volume (glioma tumor tissue; Day 17, minipump s.c. from day 5, continuous for 14 days) was 880 mm^3, the Tumor volume (glioma tumor tissue; Day 20, minipump s.c. from day 5, continuous for 14 days) was 2420 mm^3 and the toxic effects [2] was “no toxic effects”. The Tumor volume (prostate tumor tissue; Day 0) was 0 mm^3, the Tumor volume (prostate tumor tissue; Day 7) was 36 mm^3 and the Tumor volume (prostate tumor tissue; Day 10) was 62 mm^3. For the same compound, the Tumor volume (prostate tumor tissue; Day 17) was 51 mm^3, the Tumor volume (prostate tumor tissue; Day 24) was 95 mm^3 and the Tumor volume (prostate tumor tissue; Day 28) was 171 mm^3. It also gave a Tumor volume (prostate tumor tissue; Day 35) of 215 mm^3.
